Legend:
ligament ruptured mice = assay: Knee swelling in non-invasive ligament rupture mouse model; type: in vivo; details: 20 mM intra-articular
Experimental: We have established a non-invasive mouse model of post-traumatic knee joint degeneration due to ligament rupture.
Using custom built cups to hold the knee in flexion, loads (12N, 4 Hz, sine wave; ElectroForce® 3200, BOSE, USA) were applied to the right knees of 12-week-old C57Bl6 mice (n=10). […] Left knees served as unloaded controls. Immediately following ligament rupture, mice were given an intra-articular injection of 20 mM NBQX in to the right knee, whilst the control mice received an intra-articular injection of sterile H2O (vehicle control). A single dose of Temgesic was also given sub-cutaneously to relieve pain for up to 12 hours following loading.
Lameness scores were carried out every day for the first week and then every few days the following weeks to assess the welfare of the animals and the potential need for pain relief. Knee swelling was measured using digital callipers on days 0, 1, 2, 3, 7, 16 and 21. All mice were euthanized on day 21 and the knee joints fixed in formalin for histology.

MNX rats [1] = assay: Incapacitance testing in MNX rats; type: in vivo, rat; details: day 8
Experimental: (§1) We have established the meniscal transection (MNX) rat model of osteoarthritis. Surgery resection was performed wherein cutting through and removing part of the medial collateral ligament and then transecting the medial meniscus was performed under Home Office License. Surgery was performed under anaesthesia. Animals were then allowed to recover from surgery.
(§2) Using the MNX model, we tested the effects of NBQX injected directly into the knee joint. There were 5 groups of male Sprague-Dawley rats, 3 animals per group as follows: • MNX+sterile H2O (vehicle control) • MNX+2.5 mM NBQX • MNX+12.5 mM NBQX • MNX+25 mM NBQX • Naïve
(§3) NBQX treated rats received two intra-articular injections, the first immediately after MNX surgery and the second 7 days later. A single dose of Temgesic was also given sub-cutaneously to relieve pain following surgery. […] Vehicle control rats received injections of sterile H2O delivered in the same way at the same times. Over 21 days, weight, knee swelling (digital calliper) and incapacitance (Linton incapacitance meter) were measured on days 0, 1, 2, 3, 7, 8, 10, 14 and 21. The Linton incapacitance meter measures the weight exerted on each back leg whilst the rat is stationary in a clear Perspex box. The difference in weight bearing can then be calculated between the left and right leg. All rats were euthanized on day 21 and the knee joints fixed in formalin for histology.

AIA rats [2] = assay: Histological disease assessment in AIA rats (synovial inflammation, joint degradation); type: in vivo, rat; details: day 21
Experimental: On day 21, 9 AIA, 9 NBQX and 3 control rats were culled and their knees dissected intact and fixed in 10% neutral buffered formalin solution (Sigma) for 2 days. Knees were decalcified in 10% EDTA (Fisher Scientific, Loughborough, UK) at 4° C., embedded in paraffin wax, sectioned (6 μm) in the coronal plane and stained with haematoxylin and eosin for synovial inflammation or toluidine blue/safranin-O for cartilage and bone scoring or retained for immunohistochemical analysis. Synovial inflammation and joint degradation were scored by two independent observers blinded to treatment group. An established scoring system was used to score synovial inflammation (3). Briefly, 3 parameters were scored: synovial hyperplasia (pannus formation) (0-3), synovial infiltrate (0-5) and synovial exudate (0-3), to give a maximum score of 11 per joint. Joint degradation was scored using a modified Mankin score (Table 1) consisting of: cartilage surface integrity (0-6), chondrocyte appearance (0-2), proteoglycan loss (0-4), tidemark integrity (0-2) and bone changes (0-3) to give a maximum score of 17 per joint quadrant (medial and lateral femoral condyles (MFC and LFC respectively) and medial and lateral tibial plateaux (MTP and LTP respectively)) totaling to a maximum of 68 per knee. In each knee, two representative sections ˜500 μm apart were scored for joint degradation.

[3] = Body weight in ligament rupture mouse model; type: in vivo; details: all mice; over 21 days
Experimental: Using our non-invasive ligament rupture model, following trauma mice were given an intra-articular injection of 20 mM NBQX in the right knee. The left knee served as unloaded controls. Sterile water injections were performed in some mice to act as vehicle control. Knee swelling was measured using digital callipers on days 0, 1, 2, 3, 7, 16 and 21. […] Lameness scores were not severe enough to warrant extra doses of pain relief.

AMPA receptor = details: cited from earlier work
Body weight in MNX rats = type: in vivo, rat; details: all rats; over 21 days
Experimental: as §3

Kainate receptor = details: cited from earlier work
MNX rats [4] = assay: Knee swelling in meniscal transection (MNX) rats; type: in vivo, rat
Experimental: as §1, §2, §3

AIA rats [5] = assay: Macroscopic knee analysis (X-ray, MRI) in AIA rats; type: in vivo, rat; details: day 21
Source text: Prior to decalcification, whole rat knees were examined by radiography and MRI. Radiographs of both the inflamed and non-inflamed knees of 9 AIA, 9 NBQX and 3 control rats were obtained using a Kodak FX Pro in-vivo Imaging System (Advanced Molecular Vision, Grantham, UK), and the images analysed using Kodak Molecular Imaging software version 5 with the following parameters: 30 second exposure time at 35 kV, 4.96 F-stop, 71.4 mm FOV, 9.8 mm focal plane.
Both the inflamed and non-inflamed knee joints of 6 AIA and 6 NBQX rats were imaged using a high spatial resolution MRI scanning protocol at the Experimental MRI Centre (EMRIC, School of Biosciences, Cardiff University). Each pair of knees was embedded in 1% agarose (Promega) inside a 50 ml falcon tube prior to scanning. MRI was performed using a Bruker Biospin Advance 9.4T ([…]) MRI system equipped with a transmit-receive quadrature coil. The scanning acquisition parameters were as follows: echo time […], repetition time 24 msec, field of view […]; matrix 640×280×280; and flip angle 180°. Images were subsequently viewed and analysed in ParaVision 5.1 (Bruker) and Analyze 10.0 software Mayo Biomedical Imaging Resource, Rochester, Minn., USA).

RA FLS = details: cited from earlier work
Cathepsin K mRNA = assay: Bone phenotype mRNA expression in AIA rat knees; type: in vivo; details: day 21
AIA rats [6] = assay: Footprint analysis in AIA rats
Experimental: (§4) For AIA, after a 7 day settling in period, animals received a subcutaneous injection of methylated bovine serum albumin (mBSA; 0.5 mg/ml; Sigma, Poole, UK) emulsified with an equal volume of Freund's complete adjuvant (CFA; 0.25 mg Mycobacterium tuberculosis: Sigma) into the right flank. A second subcutaneous injection of the emulsion was administered in the left flank 7 days later. Fourteen days following the second injection (day 0), an intra-articular injection of mBSA (0.5 mg in 50 μl saline) was administered into the right knee of 15 rats to serve as the AIA group. Another 15 rats received an intra-articular injection of 0.5 mg mBSA mixed with 2.5 mM NBQX (Tocris, Bristol, UK) in 50 μl saline, into the right knee. These rats served as the NBQX treatment group. […] Six control rats received no subcutaneous or intra-articular injections.
Hindlimb walking patterns were evaluated by footprint analysis on days 0, 1, 2, 3, 4, 7, 9, 14 and 21 as previously described (4). […] Three sets of at least two stepping cycles per side (six sequential steps) were performed for each rat per experimental day. Three parameters were measured: limb rotation (angle between a line through the centre of the foot pad parallel to the walking direction and a line through the third digit), stride length (distance between feet of the same side) and stance width (distance between feet of the right and left stepping cycle).

AIA rats [7] = assay: KA1/AMPAR2 immunohistochemistry and TRAP staining in AIA rats; details: day 21
Experimental: as §4
GluRs and transporters were localised in sequential paraffin knee sections (9 AIA, 9 NBQX and 6 control knees) using antibodies to kainate (anti-KA1, 1:400 dilution), AMPA receptor-2 (anti-ionotropic glutamate receptor-2, 1:100, both Abcam, Cambridge, UK), GLAST (GLAST11-S, 1:100) and EAAC1 (EAAC11-A, 1:200, both Alpha Diagnostic International, Texas, USA). AMPAR2 was also localised in 6 MNX and 6 naïve rats. Sections, processed as for histology, were deparaffinised and rehydrated prior to antigen retrieval using 1 mg/mitrypsin (Sigma) for 20 minutes at 37° C. Endogenous peroxidase activity was blocked with 0.3% hydrogen peroxide (Sigma) for 30 minutes followed by 3 washes in 1×TBS/0.1% tween for 15 minutes each. Sections were treated with 10% normal blocking serum (Sigma) for 1 hour prior to overnight incubation at 4° C. with primary antibody, followed by 3 washes in 1×TBS/0.1% tween. […] ABC horseradish peroxidase kit following the manufacturer's instructions (Vector Laboratories, Peterborough, UK). Sections were developed using nickel enhanced diaminobenzidine (DAB) (Vector Laboratories), counterstained in Mayer's haematoxylin (Fisher Scientific), rinsed in tap water, dehydrated, cleared in xylene and mounted. […]

AIA rats [8] = assay: Knee swelling in AIA rats; type: in vivo, rat
Experimental: Diameters of the inflamed (right) and non-inflamed (left) knees of all the rats were measured using a Mitutoyo® digital calliper (RS Components Ltd, Northants, UK) to quantify swelling. […] Three readings were taken for each knee and the difference between the means of the inflamed and non-inflamed knee gave a value in millimeters of knee swelling.

human RA FLS = details: cited from earlier work
IL-6 mRNA = IL-6 mRNA expression in AIA rat joint tissues (QRT-PCR); type: in vivo; details: day 21

## NS(=O)(=O)c1cccc2c1c([N+](=O)[O-])cc1[nH]c(=O)c(=O)[nH]c12 [NBQX, 2,3-dihydroxy-6-nitro-7-sulfamoyl-benzo[f]quinoxaline-2,3-dione]
Ligament ruptured mice; day 7, P<0.05
  knee swelling vs vehicle controls: significantly less knee swelling
Ligament ruptured mice; day 21, P<0.001
  knee swelling vs vehicle controls: significantly less knee swelling
Ligament ruptured mice; from day 2
  knee swelling compared to day 0 measurements: no significant difference
MNX rats [1]; 2.5 mM, P<0.01
  difference in weight bearing left/right leg of vehicle control MNX rats compared to NBQX treated rats: significantly greater difference in weight bearing
MNX rats [1]; 12.5 mM, P<0.05
  difference in weight bearing left/right leg of vehicle control MNX rats compared to NBQX treated rats: significantly greater difference in weight bearing
MNX rats [1]; 25 mM, P<0.01
  difference in weight bearing left/right leg of vehicle control MNX rats compared to NBQX treated rats: significantly greater difference in weight bearing
AIA rats [2]
  synovial hyperplasia, exudate, infiltrate and articular surface degradation vs AIA rats: significantly less severe
AIA rats [2]; P<0.001
  average joint degeneration severity score vs AIA rats: significantly reduced
  bone changes score vs AIA: largest difference
  synovial inflammation score vs AIA rats: significantly lower
AIA rats [2]; P<0.01
  joint degradation in the MFC vs AIA rats: significantly less joint degradation
  proteoglycan loss score vs AIA: significantly lowered
  tidemark integrity score vs AIA: significantly lowered
AIA rats [2]; P<0.05
  chondrocyte appearance score vs AIA: significantly lowered
  joint degradation in the LFC vs AIA rats: significantly less joint degradation
[3]
  weight: consistently put on weight
AMPA receptor
  AMPA receptor antagonist: Yes
Body weight in MNX rats
  weight: consistently put on weight
Kainate receptor
  Kainate receptor antagonist: Yes
MNX rats [4]; day 8, 25 mM intra-articular, P<0.05
  knee swelling of vehicle control MNX rats compared to NBQX treated MNX rats: significantly greater knee swelling
MNX rats [4]; day 14, 2.5 mM intra-articular, P<0.01
  knee swelling of vehicle control MNX rats compared to NBQX treated MNX rats: significantly greater knee swelling
MNX rats [4]; day 14, 12.5 mM intra-articular, P<0.05
  knee swelling of vehicle control MNX rats compared to NBQX treated MNX rats: significantly greater knee swelling
AIA rats [5]
  joint erosion in MRI: greatly reduced
  joint erosions in X-rays: Fewer joint erosions
  synovial inflammation in MRI: greatly reduced
RA FLS
  inhibition of IL-6 release increased by high glutamate concentrations: inhibited
Cathepsin K mRNA
  cathepsin K mRNA expression, inflamed knees vs AIA inflamed knees: significant reduction
AIA rats [6]; P<0.05
  stance width vs control rats: significantly greater
  stride length vs control rats: significantly shorter
AIA rats [6]; by day 14
  stride length: returned to normal
AIA rats [6]; by day 21
  stance width: normal
AIA rats [6]; days 1 and 2
  weight bearing (footprints): able to weight bear
AIA rats [6]; right limb, P<0.05
  degree of foot rotation vs control rats: significantly greater
AIA rats [7]
  GluR positive cells: apparent reduction
  TRAP positive osteoclasts vs AIA: less abundant
  extent of bone remodeling: reduced
AIA rats [8]; day 1, 2.5 mM intra-articular, right knee
  mean knee swelling: 2.95 mm
AIA rats [8]; day 1, vs AIA rats, 2.5 mM intra-articular
  reduction in peak knee swelling: 33%
AIA rats [8]; every time point throughout 21 days, P<0.001
  knee swelling vs AIA rats: significant reduction
Human RA FLS
  MMP-2 expression by FLS: did not affect
IL-6 mRNA; inflamed knee, P<0.05
  IL-6 relative expression levels in meniscus vs AIA rats: significantly lower
IL-6 mRNA; left non-inflamed knee
  IL-6 relative expression levels in meniscus vs AIA rats: not significant
